Columns and labels:
[1] = test system: HT55 (Colorectal Carcinoma); test: combination Emax (second highest fraction inhibited in the dose matrix, 72 h); higher = more inhibition; extreme values may be limits of the assay
Method in brief: (§1)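 Cell lines grown in DMEM/F12 or RPMI with 10% FBS were plated in 1536-well plates and held 24 hours at 37°C, 5% CO2 before 72 hours of exposure to two-drug dose matrices, with DMSO typically at 0.2%. CellTiter-Glo 2.0 luminescence gave viability, which was converted to inhibition. Vehicle wells were set to 0 and blank wells to 1. Combination Emax is the second-highest inhibition in the matrix, and Bliss excess is the observed combination effect minus the expected EA + EB − EA·EB, where EA and EB are the single-agent effects.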

WM1552C (Melanoma) = test: as above
Method in brief: as §1

[2] = test system: HCC1395 (Breast Carcinoma); test: as above
Method in brief: as §1

[3] = test system: ESO26 (Esophageal Adenocarcinoma); test: as above
Method in brief: as §1

[4] = test system: LS-411N (Colorectal Carcinoma); test: as above
Method in brief: as §1

[5] = test system: NCI-H1651 (Lung Adenocarcinoma); test: Bliss excess, mean over the matrix (fraction); higher = more synergy
Method in brief: as §1

HCC70 (Breast Carcinoma) = test: as above
Method in brief: as §1

EW-16 (Ewing's Sarcoma) = test: as above
Method in brief: as §1

[6] = test system: CAL-27 (Oral Cavity Carcinoma); test: as above
Method in brief: as §1

[7] = test system: JIMT-1 (Breast Carcinoma); test: as above
Method in brief: as §1

[8] = test system: EPLC-272H (Other Solid Carcinomas); test: as above
Method in brief: as §1

EW-7 (Ewing's Sarcoma) = test: as above
Method in brief: as §1

IM-9 (Non-Cancerous) = test: as above
Method in brief: as §1

[9] = test system: HCC1428 (Breast Carcinoma); test: as above
Method in brief: as §1

[10] = test system: NCI-H716 (Colorectal Carcinoma); test: as above
Method in brief: as §1

[11] = test system: DU-4475 (Breast Carcinoma); test: as above
Method in brief: as §1

769-P (Kidney Carcinoma) = test: as above
Method in brief: as §1

[12] = test system: KYSE-220 (Esophageal Squamous Cell Carcinoma); test: as above
Method in brief: as §1

[13] = test system: JHH-2 (Hepatocellular Carcinoma); test: as above
Method in brief: as §1

EB2 (Burkitt's Lymphoma) = test: as above
Method in brief: as §1
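For Bliss excess, mean over the matrix in this document: after 72 h of two-drug dosing.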

Row | Compound | combination Emax [1] | combination Emax (WM1552C (Melanoma)) | combination Emax [2] | combination Emax [3] | combination Emax [4] | Bliss excess [5] | Bliss excess (HCC70 (Breast Carcinoma)) | Bliss excess (EW-16 (Ewing's Sarcoma)) | Bliss excess [6] | Bliss excess [7] | Bliss excess [8] | Bliss excess (EW-7 (Ewing's Sarcoma)) | Bliss excess (IM-9 (Non-Cancerous)) | Bliss excess [9] | Bliss excess [10] | Bliss excess [11] | Bliss excess (769-P (Kidney Carcinoma)) | Bliss excess [12] | Bliss excess [13] | Bliss excess (EB2 (Burkitt's Lymphoma))
1 | Cc1c2c(nn1C)CSCc1cc(n(C)n1)CSc1cc(c3ccccc3c1)OCCCc1c(C(=O)O)n(C)c3c-2c(Cl)ccc13 [AZD5991] + Cn1cnc2c(F)c(Nc3ccc(Br)cc3Cl)c(C(=O)NOCCO)cc21 [Selumetinib] (first compound max 1 µM, 7x7, partner max 3 µM) | 0.692 | 0.884 | 0.56 | 0.274 | 0.826 | -0.0165 | 0.099 | 0.046 | 0.0086 | -0.014 | 0.0197 | 0.0096 | 0.0092 | -0.0185 | 0.0278 | -0.0018 | -0.035 | 0.0119 | -0.0154 | -0.0046
2 | C[C@@H]1COCCN1c1cc(C2([S@](C)(=N)=O)CC2)nc(-c2ccnc3[nH]ccc23)n1 [AZD6738] + O=C(c1cc(Cc2n[nH]c(=O)c3ccccc23)ccc1F)N1CCN(C(=O)C2CC2)CC1 [Olaparib] (first compound max 10 µM, 7x7, partner max 10 µM) | 0.446 | 0.679 | 0.852 | 0.319 | 0.383 | 0.0418 | 0.0085 | 0.0402 | 0.12 | -0.0247 | -0.0682 | -0.0896 | -0.0255 | -0.003 | -0.0229 | 0.0762 | -0.0656 | -0.0642 | -0.0152 | -0.0553
3 | NC1(C(=O)N[C@@H](CCO)c2ccc(Cl)cc2)CCN(c2ncnc3[nH]ccc23)CC1 [Capivasertib] + CC(=O)c1c(C)c2cnc(Nc3ccc(N4CCNCC4)cn3)nc2n(C2CCCC2)c1=O [Palbociclib] (first compound max 10 µM, 7x7, partner max 10 µM) | 0.607 | 0.427 | 0.395 | 0.498 | 0.628 | -0.0393 | 0.0198 | 0.0029 | -0.0242 | -0.0115 | -0.0065 | 0.01 | 0.0229 | -0.0201 | -0.0018 | -0.0335 | -0.0257 | 0.0407 | -0.0028 | -0.0213
4 | NC1(C(=O)N[C@@H](CCO)c2ccc(Cl)cc2)CCN(c2ncnc3[nH]ccc23)CC1 [Capivasertib] + CC(C)n1c(=O)n(C)c2cnc3cc(F)c(-c4ccc(OCCCN5CCCCC5)nc4)cc3c21 [AZD1390] (first compound max 10 µM, 7x7, partner max 0.3 µM) | 0.381 | 0.305 | 0.383 | 0.449 | 0.434 | -0.0404 | -0.023 | -0.079 | -0.0886 | -0.0118 | -0.13 | -0.0311 | -0.0516 | -0.0538 | -0.0701 | 0.0233 | -0.0261 | -0.0659 | -0.0449 | 0.0109
5 | NC1(C(=O)N[C@@H](CCO)c2ccc(Cl)cc2)CCN(c2ncnc3[nH]ccc23)CC1 [Capivasertib] + CCN(CCO)CCCOc1ccc2c(Nc3cc(CC(=O)Nc4cccc(F)c4)[nH]n3)ncnc2c1 [AZD2811] (first compound max 10 µM, 7x7, partner max 1 µM) | 0.576 | 0.447 | 0.455 | 0.52 | 0.557 | -0.0381 | -0.0506 | -0.014 | -0.0783 | 0.0154 | 0.0027 | 0.0251 | -0.0686 | 0.0066 | -0.0402 | 0.0487 | -0.0139 | -0.0154 | -0.0437 | -0.0299
6 | NC1(C(=O)N[C@@H](CCO)c2ccc(Cl)cc2)CCN(c2ncnc3[nH]ccc23)CC1 [Capivasertib] + COc1nnc2ccc(N3CCC(c4ccc(OCCN5CCN(C)C(=O)[C@H]5C)cc4)CC3)nn12 [AZD5153] (first compound max 10 µM, 7x7, partner max 1 µM) | 0.572 | 0.555 | 0.395 | 0.753 | 0.937 | -0.0361 | 0.0422 | 0.0283 | -0.0366 | 0.0698 | -0.0025 | -0.0004 | -0.0708 | -0.0596 | -0.0181 | 0.02 | 0.055 | -0.0248 | 0.0064 | -0.0966
7 | NC1(C(=O)N[C@@H](CCO)c2ccc(Cl)cc2)CCN(c2ncnc3[nH]ccc23)CC1 [Capivasertib] + C[C@@H]1COCCN1C2=NC(=NC(=C2)C3(CC3)[S@](=N)(=O)C)C4=C5C=CNC5=NC=C4 [AZD6738] (first compound max 10 µM, 7x7, partner max 10 µM) | 0.545 | 0.651 | 0.581 | 0.599 | 0.751 | -0.0528 | -0.0586 | 0.0116 | -0.0792 | -0.0321 | -0.0353 | 0.0021 | -0.0514 | -0.0066 | -0.0317 | 0.0226 | -0.0448 | -0.0523 | -0.0651 | -0.0714
8 | NC1(C(=O)N[C@@H](CCO)c2ccc(Cl)cc2)CCN(c2ncnc3[nH]ccc23)CC1 [Capivasertib] + Cn1cnc2c(F)c(Nc3ccc(Br)cc3Cl)c(C(=O)NOCCO)cc21 [Selumetinib] (first compound max 10 µM, 7x7, partner max 10 µM) | 0.767 | 0.638 | 0.425 | 0.523 | 0.786 | -0.0156 | 0.18 | 0.0097 | 0.0108 | 0.0449 | 0.128 | 0.0429 | -0.0169 | 0.0149 | 0.119 | 0.0066 | 0.0062 | 0.0644 | 0.016 | -0.0049
9 | COc1cccc2c1C(=O)c1c(O)c3c(c(O)c1C2=O)C[C@@](O)(C(=O)CO)C[C@@H]3O[C@H]1C[C@H](N)[C@H](O)[C@H](C)O1 [Doxorubicin] + Cc1cc2ncnn2cc1Nc1ncc2c(n1)n(C1CCOCC1)c(=O)n2C [AZD7648] (first compound max 1 µM, 7x7, partner max 10 µM) | 0.678 | 0.793 | 0.401 | 0.801 | 0.508 | 0.024 | 0.0344 | 0.0933 | 0.0853 | 0.0514 | 0.0568 | 0.0058 | 0.127 | -0.0499 | 0.0113 | 0.143 | 0.0903 | 0.0232 | 0.0229 | 0.0972
10 | CS(=O)(=O)CCNCc1ccc(-c2ccc3ncnc(Nc4ccc(OCc5cccc(F)c5)c(Cl)c4)c3c2)o1 [Lapatinib] + C[C@@H](Oc1cc(-c2cnn(C3CCNCC3)c2)cnc1N)c1c(Cl)ccc(F)c1Cl [Crizotinib] (first compound max 10 µM, 7x7, partner max 10 µM) | 0.931 | 0.921 | 0.906 | 0.854 | 0.584 | -0.0331 | -0.0208 | -0.0562 | -0.0589 | 0.0444 | 0.0191 | -0.0465 | -0.0378 | -0.043 | -0.0217 | -0.0077 | -0.0331 | -0.0397 | -0.0831 | -0.0705
11 | CC(=O)c1c(C)c2cnc(Nc3ccc(N4CCNCC4)cn3)nc2n(C2CCCC2)c1=O [Palbociclib] + CC1(C)CCC(CN2CCN(c3ccc(C(=O)NS(=O)(=O)c4ccc(NCC5CCOCC5)c([N+](=O)[O-])c4)c(Oc4cnc5[nH]ccc5c4)c3)CC2)=C(c2ccc(Cl)cc2)C1 [Venetoclax] (first compound max 10 µM, 7x7, partner max 1 µM) | 0.478 | 0.28 | 0.0711 | 0.112 | 0.153 | -0.038 | -0.0356 | 0.0564 | -0.0483 | -0.0448 | -0.0106 | 0.0071 | 0.0389 | -0.0378 | 0.0345 | -0.0162 | -0.0158 | -0.081 | 0.0031 | -0.044
12 | CC(=O)c1c(C)c2cnc(Nc3ccc(N4CCNCC4)cn3)nc2n(C2CCCC2)c1=O [Palbociclib] + Cc1c2c(nn1C)CSCc1cc(n(C)n1)CSc1cc(c3ccccc3c1)OCCCc1c(C(=O)O)n(C)c3c-2c(Cl)ccc13 [AZD5991] (first compound max 10 µM, 7x7, partner max 1 µM) | 0.506 | 0.638 | 0.419 | 0.63 | 0.347 | -0.0239 | -0.0171 | -0.0356 | -0.0869 | -0.0348 | -0.0979 | -0.0005 | 0.0229 | -0.033 | -0.0343 | 0.0238 | -0.004 | -0.0645 | -0.0475 | -0.0352
13 | CC(=O)c1c(C)c2cnc(Nc3ccc(N4CCNCC4)cn3)nc2n(C2CCCC2)c1=O [Palbociclib] + Cn1cnc2c(F)c(Nc3ccc(Br)cc3Cl)c(C(=O)NOCCO)cc21 [Selumetinib] (first compound max 10 µM, 7x7, partner max 10 µM) | 0.755 | 0.47 | 0.0651 | 0.299 | 0.715 | -0.0391 | 0.055 | -0.0095 | -0.0132 | -0.0436 | 0.024 | 0.0709 | 0.0248 | -0.0235 | -0.0843 | -0.0446 | 0.039 | 0.0235 | 0.0347 | -0.018
14 | COc1cccc(OCCCN)c1-c1cc(Nc2cnc(C#N)cn2)n[nH]1 [Prexasertib] + C=CCn1c(=O)c2cnc(Nc3ccc(N4CCN(C)CC4)cc3)nc2n1-c1cccc(C(C)(C)O)n1 [AZD1775] (first compound max 1 µM, partner max 1 µM) | 0.67 | 0.885 | 0.903 | 0.649 | 0.759 | 0.0428 | 0.0723 | 0.155 | 0.0945 | 0.032 | -0.0284 | 0.0157 | 0.0644 | 0.138 | 0.0167 | 0.114 | 0.0163 | 0.0333 | 0.0869 | 0.0249
